In experiment [1] the target is T1, membranes of SK-N-MC cells, which express the CGRP receptor (Homo sapiens, UniProt O60894+Q16602).
T1 construct: membranes of SK-N-MC cells, which express the CGRP receptor; host or cells: SK-N-MC cell membranes (endogenous receptor)
To be noted: read-out: IC50 reported for binding to membranes of SK-N-MC cells; cited from earlier work.

Experiment [2] deals with T2, RAMP1-CLR ECD (CGRP); purified MBP-RAMP1 ECD-(GS)5-CLR ECD-H6 fusion protein (Homo sapiens, UniProt O60894+Q16602).
T2 construct: MBP-hRAMP1.24-111-(Gly-Ser)5-hCLR.29-144-H6; made in house; host or cells: E. coli
Put plainly: Fluorescence polarization (FP) peptide binding competition assay, CGRP receptor ECD complex. To be noted: for Receptor Selectivity (in words): CGRP vs AM1 receptor ECD complexes; for Receptor Selectivity (in words) / Receptor Selectivity, fold for CGRP: FP assay; for Ki: RAMP1-CLR ECD (CGRP) KI (nM), FP competition, FITC-AM W/W probe 7 nM, fusion protein 15 nM; for Receptor Selectivity, fold for CGRP: CGRP (RAMP1-CLR ECD) over AM1 (RAMP2-CLR ECD). How it is done:
Fluorescence polarization peptide binding assay. […] The reactions (50 μL) were incubated for 2 hours at room temperature to reach equilibrium, and the anisotropy was measured in black half-area 96-well plates using a BMG LABTECH's POLARstar® Omega plate reader (Ortenberg, Germany). The reaction buffer was 50 mM HEPES, pH 7.5, 150 mM NaCl, 0.5 mg/ml fatty acid-free BSA, 0.5 mM EDTA, 0.5 mM maltose. Ki values were calculated using nonlinear regression fitting of the competition curves to the exact analytical equations of Roehrl et al. (Biochemistry (2004) 43:16056-66) using GraphPad Prism 5.0 (GraphPad Software, San Diego Calif.).
(§1) The ability of the indicated peptides to displace a FITC-Ahx-AM(37-52)NH2 [S45W, Q50W] probe (7 nM) from purified MBP-RAMP1 ECD-(GS)5-CLR ECD-H6 fusion protein (15 nM) was assessed by fluorescence polarization (anisotropy). The reactions were incubated for 2 hours at room temperature to reach equilibrium, and the anisotropy was measured in black half-area 96-well plates using a BMG LABTECH's POLARstar® Omega plate reader (Ortenberg, Germany). The reaction buffer was 50 mM HEPES, pH 7.5, 150 mM NaCl, 0.5 mg/ml fatty acid-free BSA, 0.5 mM EDTA, 0.5 mM maltose. KI values were calculated using nonlinear regression fitting of the competition curves to the exact analytical equations of Roehrl et al. (Biochemistry (2004) 43:16056-66) using GraphPad Prism 5.0 (GraphPad Software, San Diego Calif.).
as §1, with “Single representative experiments conducted with duplicate samples are shown. Error bars are S.E.M. The ability” for “The ability”, “displace a FITC-Ahx-AM(37-52)NH2[S45W, Q50W] probe” for “displace a FITC-Ahx-AM(37-52)NH2 [S45W, Q50W] probe”
A fluorescence polarization/anisotropy (FP) peptide-binding assay was developed using N-terminally FITC-labeled AM(37-52) S45W/Q50W as the probe, hereafter “FITC-AM W/W.” The probe was custom synthesized and HPLC-purified by RS Synthesis. The large size difference between the MBP-RAMP ECD-CLR ECD fusion proteins (˜65 kDa) and the probe (˜2.5 kDa) ensures a significant anisotropy difference between bound and free states of the probe. […] Kd values for the probe at each of the tethered ECD fusion proteins were determined in equilibrium saturation binding experiments (data not shown), and KI values were determined for unlabeled peptides in equilibrium competition experiments (Table 1; FIGS. 2-5). The data were analyzed according to exact analytical equations using non-linear regression curve fitting in GraphPad Prism 5.0 (GraphPad Software) via user-defined equations.
For orientation: In fluorescence polarisation assays a small probe gives low polarisation when free and higher when bound to something large.

A further experiment deals with T3, RAMP2-CLR ECD (Homo sapiens, UniProt O60895+Q16602, L106R).
T3 construct: MBP-hRAMP2.55-140 [L106R]-(Gly-Ser-Ala)3-hCLR.29-144-H6; made in house; host or cells: E. coli
Put plainly: AlphaLISA/AlphaScreen competition peptide binding assay, AM1 receptor ECD complex. How it is done: Protein production and characterization and peptides. Plasmid construction, mutagenesis, protein expression, purification, and the AlphaScreen® peptide binding assay (Perkin-Elmer, Waltham, Mass.) were performed as previously described with minor modifications to the AlphaScreen® assay (Hill and Pioszak, Protein expression and purification (2013) 88:107-113; and Moad and Pioszak, Protein Sci. (2013) 22:1775-85). Synthetic peptides were from RS Synthesis (Louisville, Ky.), Bachem (Bubendorf, Switzerland), or were synthesized in-house. […]
FIG. 1 depicts in (B) binding of an AM C-terminal peptide, AM(37-52)NH2, and the two variant AM C-terminal peptides to purified AM1 receptor extracellular domain complex (CLR:RAMP2). The ability of the indicated peptides to displace a Biotin-CGRP probe (50 nM) from purified MBP-RAMP1 ECD-(GS)5-CTR ECD-H6 fusion protein (5 nM) or a Biotin-AM probe (25 nM) from purified MBP-RAMP2 ECD [L106R]-(GS)5-[…] ECD-H6 fusion protein (5 nM) was assessed by AlphaLISA® luminescent peptide binding assay (Perkin-Elmer, Waltham, Mass.). […] The reactions were incubated for 5 hours at room temperature to reach equilibrium, and the luminescence was measured in white 384-well plates using a BMG LABTECH's POLARstar Omega plate reader (Ortenberg, Germany). […]

The target of experiment [3] is T4, AMY1 receptor extracellular domain complex; purified MBP-RAMP1 ECD-(GS)5-CTR ECD-H6 fusion protein (Homo sapiens, UniProt O60894+P30988).
T4 construct: purified MBP-RAMP1 ECD-(GS)5-CTR ECD-H6 fusion protein (200 nM); made in house; host or cells: HEK293T
Put plainly: AlphaLISA luminescent peptide binding assay, AMY1 receptor ECD complex. To be noted: displacement of Biotin-AC413 probe (100 nM), fusion protein 200 nM. The method, then: A single representative experiment conducted with duplicate samples is shown. Error bars are S.E.M. The ability of the indicated peptides to displace a Biotin-AC413 probe (100 nM) from purified MBP-RAMP1 ECD-(GS)5-CTR ECD-H6 fusion protein (200 nM) was assessed by AlphaLISA® luminescent peptide binding assay (Perkin-Elmer, Waltham, Mass.) as described in Lee et al. (J Biol. Chem (2016) 291:8686-8700). The reactions were incubated for 5 hours at room temperature to reach equilibrium, and the luminescence was measured in white 384-well plates using a BMG LABTECH's POLARstar® Omega plate reader (Ortenberg, Germany). The reaction buffer was 50 mM MOPS, pH 7.4, 150 mM NaCl, 7 mg/ml fatty acid-free BSA and the streptavidin-coated donor beads and MBP-antibody coated acceptor beads were at 15 μg/ml each. IC50 values were calculated using nonlinear regression fitting of the competition curves to a three-parameter, one-site competitive binding equation in GraphPad Prism 5.0 (GraphPad Software, San Diego Calif.).
For orientation: Alpha assays give light when donor and acceptor beads are brought close together.

Experiment [4] has as its target T5, full-length CGRP (RAMP1:CLR) receptor transiently expressed in COS-7 cells (Homo sapiens, UniProt O60894+Q16602).
T5 construct: Plasmids for expression of tagged full-length CLR and RAMP1 or RAMP2 receptors in mammalian cells were previously described; expressed in transfected cells; host or cells: COS-7
Put plainly: Antagonism of CGRP-activated cAMP signaling in COS-7 cells. Type of experiment: cell-based. The method, then: (§2) Cell-based assays. Transfection of COS-7 cells, cAMP assay, ELISA for cell surface expression, and data analysis were as previously described (Barwell et al., Peptides (2010) 31:170-176; Watkins et al., Br J Pharmacol (2014) 171:772-788).
(§3) A single representative experiment conducted with duplicate samples is shown. Error bars are S.E.M. The experiments were performed as described in Lee et al. (J Biol. Chem (2016) 291:8686-8700). […] (B) depicts antagonism of AM-activated cAMP signaling at the AM1 receptor.
(§4) Forty-eight hours after transfection, the cells were pre-incubated for 30 minutes in the absence or presence of 500 nM AM(37-52)NH2 [S45W/K46L/Q50W/Y52F], and then stimulated for 15 minutes with increasing concentrations of agonist peptide in the absence or presence of 500 nM antagonist. The cells were lysed, and cAMP was quantitated using a LANCE TR-FRET cAMP kit (Perkin-Elmer Waltham, Mass.).

Experiment [5] addresses T6, full-length AM1 (RAMP2:CLR) receptor transiently expressed in COS-7 cells (Homo sapiens, UniProt O60895+Q16602).
T6 construct: Plasmids for expression of tagged full-length CLR and RAMP1 or RAMP2 receptors in mammalian cells were previously described; expressed in transfected cells; host or cells: COS-7
Put plainly: Antagonism of AM-activated cAMP signaling in COS-7 cells. Type of experiment: cell-based. The note with it: 500 nM antagonist. The method, then: as §2, §3, §4

Where no end group is shown, it is not given here.

Take `CC(C)[C@H](NC(=O)[C@H](CC(=O)O)NC(=O)[C@@H](NC(=O)[C@@H]1CCCN1C(=O)[C@@H](NC(=O)[C@@H](N)Cc1ccccc1)C(C)C)[C@@H](C)O)C(=O)NCC(=O)N1CCC[C@H]1C(=O)N[C@@H](Cc1ccccc1)C(=O)N[C@@H](C)C(=O)N[C@@H](Cc1ccccc1)C(N)=O` [CGRPmut [N31D/S34P/K35F]]: in experiment [1], the IC50 was 29 nM.
For “DKDNVAPRSKISPQGY-NH2 [WT, reference compound]”, in experiment [2], the “Receptor Selectivity (in words)” value is recorded as “AM1 over CGRP” and the inhibitory constant (Ki) was > 100000 nM. In addition, at RAMP2-CLR ECD (read-out: IC50 in AlphaLISA or AlphaScreen competition assays, RAMP2-CLR ECD), the IC50 is 5000 to 15000 nM.
Turning to DKDNVAPRSKISPWGY-NH2 [Peptide Q50W], in experiment [2], the “Receptor Selectivity (in words)” value is reported as “Non-selective” and the Ki was 501 nM. For the same compound, the “fold increased affinity for RAMP2-CLR ECD” value at RAMP2-CLR ECD (competition assays, relative to AM(37-52)NH2) was ~100 fold.
On to “DKDNVAPRWLISPWGF-NH2 [S45W/K46L/Q50W/Y52F]”, for which, in experiment [2], the “Receptor Selectivity, fold for CGRP” value is on record as 2131-fold for CGRP and the affinity, expressed as Ki, was 1.91 nM. Moreover, the “Receptor Selectivity, fold for CGRP” value in experiment [2] (listed as AM(37-52)NH2 [S45W/K46L/Q50W/Y52F]) is given as > 2000 fold. For the same compound, in experiment [3], the IC50 stood at 16000 nM. The same compound gave a Kb in experiment [4] of 10.5 nM. In addition, in experiment [4] (500 nM antagonist, COS-7 cells, Gaddum/Schild EC50 shift, slopes constrained to 1), the “pA2, antagonism of CGRP-activated cAMP signaling at the CGRP receptor” value is listed as ~8. Also, the “affinity for the intact CGRP receptor suggested by pA2” value in experiment [4] (COS-7 cells) is on record as ~10 nM. The “antagonism of the AM1 receptor (cAMP)” value in experiment [5] was “did not antagonize the AM1 receptor”.

Usually IC50 stands for the point on the concentration scale where inhibition reaches its midpoint. Broadly, the Ki is a dissociation constant, usually derived from enzyme kinetics or from competition with a known ligand. A high value points to lower affinity. The term Kb denotes the affinity of an antagonist, worked out from how it opposes an agonist. Lower therefore signals a more potent antagonist.

The values above are taken from US10723778B2, “Variants of adrenomedullin and calcitonin gene-related peptide and methods of use” (The Board of Regents of the University of Oklahoma, priority 2015, dated 2020).
